Drawing on US20240352000A1, “NOVEL PYRIMIDINE-2,4-DIAMINE DERIVATIVES, PREPARATION METHOD THEREFOR, AND PHARMACEUTICAL COMPOSITION CONTAINING SAME AS ACTIVE INGREDIENT FOR PREVENTION OR TREATMENT OF CANCER” (KOREA RESEARCH INSTITUTE OF CHEMICAL TECHNOLOGY, priority 2021, published 2024), this text covers IC50 for six compounds.

Molecules are shown by their SMILES.

One assay has as its system Ba/F3 EGFR L858R. Kind of assay: CellTiter-Glo cell viability, Ba/F3 EGFR L858R. The conditions noted are these: 72 hours. It is filed as cell-based. The protocol:
(§1) An experiment to measure the activity of the compounds of the present invention against the mutant Ba/F3 EGFR cell line was performed as follows using the CellTiter-Glo system sold by Promega. The CellTiter-Glo assay is a method to confirm the cell viability by measuring ATP present in cells in cell culture. The Ba/F3 EGFR L858R, Ba/F3 EGFR L858R/T790M, Ba/F3 EGFR L858R/T790M/C797S mutant cell line was used. The Ba/F3 EGFR L858R, Ba/F3 EGFR L858R/T790M, and Ba/F3 EGFR L858R/T790M/C797S mutant cell lines was cultured in RPMI containing 10% FBS and 1% penicillin-streptomycin with 1 μg of puromycin in an incubator at 37° C. and 5% CO2.
(§2) Analysis of the inhibitory ability effect of the compounds against EGFR was conducted according to the following analysis reaction recipe.
(§3) 2500 cells/90 μl were passaged and cultured in a 96-well cell culture plate, and after 24 hours, treated with the compound represented by Formula 1 at a concentration of 0, 0.01, 0.03, 0.1, 0.3, 1, 3, and 10 (μM). After reaction for 72 hours, the plate treated with the compound was left at room temperature for 30 minutes, then further treated with 100 μl of reagent, and shaken at room temperature for 10 minutes. Finally, the ratio of fluorescence values at 570 nm was obtained using the equipment to quantitatively measure and confirmed the inhibitory ability of the compounds. The measurement values measured at eight compound concentrations were analyzed using the Prism program (version 5.01, Graphpad Software, Inc.), and the IC50 value, which is an indicator of the inhibitory ability of the compound, was calculated.
A general note: In ATP-based viability assays light output follows the ATP content of the culture.

The next assay addresses HER2 A775_G776insYVMA (Homo sapiens (Human), UniProt P04626, INS775YVMA). Briefly: HTRF enzyme assay, HER2 mutant enzyme. In kind it is biochemical. The conditions noted are these: recombinant enzyme, 37° C. 2 hours. As to the method:
An experiment to measure the activity of the compounds of the present invention against HER mutant enzymes was performed as follows using the HTRF system sold by Cisbio. For the HER2 mutant enzyme, HER2 A775_G776insYVMA mutant enzyme, a recombinant protein provided by Carna Biosciences was purchased and used.
(§4) The composition of the assay buffer used for measuring the activity was 50 mM Tris-HCl pH 7.5, 100 mM NaCl, 7.5 mM MgCl2, 3 mM KCl, 0.01% Tween 20, 0.1% BSA, and 1 mM DTT. Here, an enzyme reaction was performed using with ATP at a concentration of […] and a peptide substrate labeled biotin at a concentration of […]. Analysis of the inhibitory effect of the compounds against the HER2 A775_G776insYVMA mutant activity was conducted according to the following analysis reaction recipe. • Component 1: 4 μL of a HER2 A775_G776insYVMA mutant enzyme • Component 2: 2 μL of a compound solution • Component 3: 4 μL of ATP and a peptide labeled with biotin
(§5) The enzyme reaction was started by first mixing Component 1 and Component 2 and then adding Component 3. After reaction at 37° C. for 2 hours, […] of measurement solution consisting of streptavidin-XL665 and europium-labeled anti-phosphotyrosine antibody provided by Cisbio was added to the enzyme reaction solution and reacted at room temperature for 1 hour. Finally, the ratio of fluorescence values at 615 nm and 665 nm was obtained using the Envision equipment from Perkin-Elmer to quantitatively measure the enzyme activity and confirmed the inhibitory ability of the compounds. The measurement values measured at seven compound concentrations were analyzed using the Prism program (version 5.01, Graphpad Software, Inc.), and the IC50 value, which is an indicator of the inhibitory ability of the compound, was calculated.
For orientation: TR-FRET usually uses a lanthanide donor and a delayed reading to cut background.

The subject of the next assay is Ba/F3 EGFR del19. Briefly: CellTiter-Glo cell viability, Ba/F3 EGFR del19. In kind it is cell-based. The conditions noted are these: 72 hours. The protocol:
(§6) An experiment to measure the activity of the compounds of the present invention against the mutant Ba/F3 EGFR cell line was performed as follows using the CellTiter-Glo system sold by Promega. The CellTiter-Glo assay is a method to confirm the cell viability by measuring ATP present in cells in cell culture. For the Ba/F3 EGFR del19, Ba/F3 EGFR del19/T790M, Ba/F3 del19/T790M/C797S mutant cell line, a cell line provided by Crown Bioscience was purchased and used. The Ba/F3 EGFR del19, Ba/F3 EGFR del19/T790M, Ba/F3 del19/T790M/C797S mutant cell line was cultured in RPMI containing 10% FBS and 1% penicillin-streptomycin with 1 μg of puromycin in an incubator at 37° C. and 5% CO2.
as §2
as §3, with “cells/90 μL” for “cells/90 μl”

Assay [1] concerns Ba/F3 EGFR V769_D770insASV. Briefly: CellTiter-Glo cell growth, Ba/F3 EGFR Ex20 insertion mutant. It is filed as cell-based. The conditions noted are these: 72 hours. The protocol: as §6, with “the” for “the mutant”, “EGFR V769_D770insASV mutant” for “EGFR”, “EGFR V769_D770insASV” for “EGFR del19, Ba/F3 EGFR del19/T790M, Ba/F3 del19/T790M/C797S”, “1 μg/ml” for “1 μg”
Analysis of the inhibitory ability effect of the compounds against the EGFR mutant cell growth was conducted according to the following analysis reaction recipe.
as §3, with “1000 cells/100 μL were passaged” for “2500 cells/90 μl were passaged”, “[…]. After reaction” for “and 10 (μM). After reaction”, “with 100 μL of reagent,” for “with 100 μl of reagent,”, “confirmed the cell growth inhibitory ability” for “confirmed the inhibitory ability”, “of the cell growth inhibitory ability” for “of the inhibitory ability”

Another assay deals with Ba/F3 EGFR del19/T790M. Kind of assay: CellTiter-Glo cell viability, Ba/F3 EGFR del19/T790M. In kind it is cell-based. The conditions noted are these: 72 hours. As to the method:
as §6, §2
as §3, with “cells/90 μL” for “cells/90 μl”

In another assay the target is EGFR A763_Y764insFHEA (Homo sapiens (Human), UniProt P00533, INS763FHEA). Kind of assay: HTRF enzyme assay, EGFR Ex20 insertion mutant enzyme. In kind it is biochemical. The conditions noted are these: recombinant enzyme, 37° C. 2 hours. The protocol: An experiment to measure the activity of the compounds of the present invention against EGFR mutant enzymes was performed as follows using the HTRF system sold by Cisbio. For the EGFR mutant enzyme, EGFR A763_Y764insFHEA enzyme, a recombinant protein provided by SignalChem was purchased and used.
as §4, with “performed using ATP at” for “performed using with ATP at”, “substrate labeled with biotin at” for “substrate labeled biotin at”, “against the EGFR activity was” for “against the HER2 A775_G776insYVMA mutant activity was”, “μL of an EGFR mutant enzyme” for “μL of a HER2 A775_G776insYVMA mutant enzyme”
as §5

In another assay the test system is Ba/F3 EGFR L858R/T790M. Briefly: CellTiter-Glo cell viability, Ba/F3 EGFR L858R/T790M. It is filed as cell-based. The conditions noted are these: 72 hours. As to the method: as §1, §2, §3
In assay [2] the test system is Ba/F3 EGFR del19/T790M/C797S. Briefly: CellTiter-Glo cell viability, Ba/F3 EGFR del19/T790M/C797S. The conditions noted are these: 72 hours. In kind it is cell-based. As to the method:
as §6, §2
as §3, with “cells/90 μL” for “cells/90 μl”

Assay [3] deals with Ba/F3 EGFR L858R/T790M/C797S. Briefly: CellTiter-Glo cell viability, Ba/F3 EGFR L858R/T790M/C797S. In kind it is cell-based. The conditions noted are these: 72 hours. As to the method:
as §1, §2, §3

Sequence of EGFR A763_Y764insFHEA (P00533 other isoform, or with tags, fused parts or gaps del 1-694/ins FHEA behind 763 limits assumed): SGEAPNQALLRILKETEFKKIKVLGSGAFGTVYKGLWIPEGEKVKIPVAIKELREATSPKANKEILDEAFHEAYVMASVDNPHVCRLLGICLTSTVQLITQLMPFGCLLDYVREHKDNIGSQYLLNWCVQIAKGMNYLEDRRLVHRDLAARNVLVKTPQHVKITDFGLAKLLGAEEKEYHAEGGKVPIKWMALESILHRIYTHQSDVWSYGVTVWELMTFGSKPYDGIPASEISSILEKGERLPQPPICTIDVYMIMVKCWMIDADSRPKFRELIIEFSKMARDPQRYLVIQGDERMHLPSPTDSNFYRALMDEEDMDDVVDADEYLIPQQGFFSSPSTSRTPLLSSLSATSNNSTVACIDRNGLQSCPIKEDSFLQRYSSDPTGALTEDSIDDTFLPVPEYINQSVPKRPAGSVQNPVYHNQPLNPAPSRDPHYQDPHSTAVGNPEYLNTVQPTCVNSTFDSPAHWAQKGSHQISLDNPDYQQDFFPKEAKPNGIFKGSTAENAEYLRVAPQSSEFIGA
Sequence of HER2 A775_G776insYVMA (P04626 other isoform, or with tags, fused parts or gaps del 1-675/ins YVMA behind 775 limits assumed): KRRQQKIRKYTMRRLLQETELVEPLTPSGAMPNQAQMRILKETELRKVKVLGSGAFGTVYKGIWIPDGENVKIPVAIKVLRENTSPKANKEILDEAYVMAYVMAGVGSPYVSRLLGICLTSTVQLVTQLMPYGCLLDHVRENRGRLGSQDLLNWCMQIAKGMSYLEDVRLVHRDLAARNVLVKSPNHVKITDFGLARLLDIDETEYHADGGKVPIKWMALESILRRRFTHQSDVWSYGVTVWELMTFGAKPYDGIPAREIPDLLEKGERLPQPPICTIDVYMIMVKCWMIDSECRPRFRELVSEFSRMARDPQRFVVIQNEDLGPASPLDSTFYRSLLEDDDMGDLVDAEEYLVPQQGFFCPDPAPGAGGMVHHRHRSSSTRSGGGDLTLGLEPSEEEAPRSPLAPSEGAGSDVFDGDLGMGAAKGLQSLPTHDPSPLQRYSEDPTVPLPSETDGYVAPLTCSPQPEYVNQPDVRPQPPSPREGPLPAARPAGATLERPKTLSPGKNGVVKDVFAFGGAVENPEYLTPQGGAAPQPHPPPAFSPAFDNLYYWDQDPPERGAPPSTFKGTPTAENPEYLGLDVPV

In general, IC50 refers to the concentration that inhibits the measured activity by half. Turning to `CCC(=O)N1CCc2cccc(Nc3nc(Nc4ccc(N5CCC(N6CCN(C)CC6)CC5)cc4OC)ncc3Cl)c21` [Example 14, 1-(7-((5-chloro-2-((2-methoxy-4-(4-(4-methylpiperazin-1-yl)piperidin-1-yl)phenyl)amino)pyrimidin-4-yl)amino)indolin-1-yl)propan-1-one], the IC50 with Ba/F3 EGFR L858R was above 0.1 µM; at HER2 A775_G776insYVMA it was above 0.1 µM; with Ba/F3 EGFR del19, below 0.1 µM; in assay [1], above 0.1 µM; in the assay with Ba/F3 EGFR del19/T790M it was above 0.1 µM; at EGFR A763_Y764insFHEA it was above 0.1 µM. The IC50 (in the assay on Ba/F3 EGFR L858R/T790M; in assay [2]; in [3]) was above 0.1 µM each time.

As to `CCS(=O)(=O)N1CCc2cccc(Nc3nc(Nc4ccc(N5CCC(N6CCN(C)CC6)CC5)cc4OC)ncc3Cl)c21` [Example 13, 5-chloro-N4-(1-(ethylsulfonyl)indolin-7-yl)-N2-(2-methoxy-4-(4-(4-methylpiperazin-1-yl)piperidin-1-yl)phenyl)pyrimidine-2,4-diamine], the half-inhibitory concentration (IC50) was above 0.1 µM in the assay with Ba/F3 EGFR L858R; 0.026 µM at HER2 A775_G776insYVMA; below 0.1 µM in the assay on Ba/F3 EGFR del19; above 0.1 µM in [1]; above 0.1 µM in the assay on Ba/F3 EGFR del19/T790M; 0.091 µM at EGFR A763_Y764insFHEA. Further, the IC50 (in the assay with Ba/F3 EGFR L858R/T790M; in assay [2]; in [3]) was above 0.1 µM throughout.

Take `COc1cc(N2CCC(N3CCN(C)CC3)CC2)ccc1Nc1ncc(Cl)c(Nc2cccc3c2N(C(C)=O)CC3)n1` [Example 12, 1-(7-((5-chloro-2-((2-methoxy-4-(4-(4-methylpiperazin-1-yl)piperidin-1-yl)phenyl)amino)pyrimidin-4-yl)amino)indolin-1-yl)ethan-1-one]: the IC50 was above 0.1 µM in the assay with Ba/F3 EGFR L858R; 0.025 µM at HER2 A775_G776insYVMA; below 0.1 µM with Ba/F3 EGFR del19; above 0.1 µM in [1]; above 0.1 µM with Ba/F3 EGFR del19/T790M; 0.178 µM at EGFR A763_Y764insFHEA. Besides, the concentration for half-maximal inhibition (IC50) (in the assay on Ba/F3 EGFR L858R/T790M; in assay [2]; in assay [3]) was above 0.1 µM each time.

Turning to `COc1cc(N2CCC(N3CCNCC3)CC2)ccc1Nc1ncc(Cl)c(Nc2cccc3c2N(S(C)(=O)=O)CC3)n1` [Example 17, 5-chloro-N2-(2-methoxy-4-(4-(piperazin-1-yl)piperidin-1-yl)phenyl)-N4-(1-(methylsulfonyl)indolin-7-yl)pyrimidine-2,4-diamine], the IC50 in the assay on Ba/F3 EGFR L858R was below 0.1 µM; on HER2 A775_G776insYVMA, 0.004 µM; in the assay with Ba/F3 EGFR del19, below 0.1 µM; in [1], above 0.1 µM; in the assay with Ba/F3 EGFR del19/T790M, below 0.1 µM; on EGFR A763_Y764insFHEA, 0.02 µM. Moreover, the IC50 (with Ba/F3 EGFR L858R/T790M; in [2]; in assay [3]) was above 0.1 µM in each case.

Turning to `COc1cc(N2CCC(N3CCN(C)CC3)CC2)ccc1Nc1ncc(Cl)c(Nc2cccc3c2N(C(C)=O)CCC3)n1` [Example 15, 1-(8-((5-chloro-2-((2-methoxy-4-(4-(4-methylpiperazin-1-yl)piperidin-1-yl)phenyl)amino)pyrimidin-4-yl)amino)-3,4-dihydroquinolin-1(2H)-yl)ethan-1-one], the IC50 with Ba/F3 EGFR L858R is above 0.1 µM; on HER2 A775_G776insYVMA, 0.589 µM; in the assay on Ba/F3 EGFR del19, above 0.1 µM; in [1], above 0.1 µM; with Ba/F3 EGFR del19/T790M, above 0.1 µM; on EGFR A763_Y764insFHEA, above 0.1 µM. The IC50 (with Ba/F3 EGFR L858R/T790M; in [2]; in assay [3]) was above 0.1 µM in each case.

Take `CCC(=O)N1CCCc2cccc(Nc3nc(Nc4ccc(N5CCC(N6CCN(C)CC6)CC5)cc4OC)ncc3Cl)c21` [Example 16, 1-(8-((5-chloro-2-((2-methoxy-4-(4-(4-methylpiperazin-1-yl)piperidin-1-yl)phenyl)amino)pyrimidin-4-yl)amino)-3,4-dihydroquinolin-1(2H)-yl)propan-1-one]: the half-maximal inhibitory concentration (IC50) (with Ba/F3 EGFR L858R; at HER2 A775_G776insYVMA; in the assay on Ba/F3 EGFR del19; in assay [1]; in the assay with Ba/F3 EGFR del19/T790M; at EGFR A763_Y764insFHEA) was above 0.1 µM throughout. Moreover, the half-inhibitory concentration (IC50) (in the assay with Ba/F3 EGFR L858R/T790M; in assay [2]; in assay [3]) was above 0.1 µM throughout.
